From patent publication US20080015386A1, “Crystal of L-Ornithine-Citric Acid Salt” (KYOWA HAKKO KOGYO CO., LTD., priority 2004, published 2008)

Conditions: 25° C., relative humidity 75%, weight change measured until day 7; numerical values only in FIG. 1
Experimental: A saturated aqueous solution of sodium chloride (approximately 200 mL) was allowed to stand in a plastic desiccator at 25° C. for 24 hours (relative humidity was adjusted to 75%). […] The weighing vessel was allowed to stand in the desiccator with the humidity adjusted, and the weight change of the weighing vessel was measured over the course of time.
The hygroscopicity (hygroscopic degree) was calculated using the following formula (1) on the basis of the weight change at each measuring time. The measurement of the weight change of the weighing vessel was continued until day 7.
Hygroscopic rate (%)=W3−W2/W2−W1×100 (1)
W1=Weight (g) of a weighing vessel
W2=Weight (g) of a weighing vessel filled with crystals before the test
W3=Weight (g) of a weighing vessel filled with crystals after the test

NCCC[C@H](N)C(=O)O.NCCC[C@H](N)C(=O)O.O=C(O)CC(O)(CC(=O)O)C(=O)O [Example 1, L-ornithine-½ citric acid salt]
Hygroscopicity (hygroscopic rate): did not show notable hygroscopicity
